Reference: article PMC11062899, “De novo development of small cyclic peptides that are orally bioavailable” (Nature Chemical Biology, 2023)
Several values for one entry are separate records, joined by “and”; a condition that tells them apart may be missing. Equal entries are not always repeated.

Key:
plasma kallikrein = target: T1, plasma kallikrein (Homo sapiens, UniProt P03952); assay: Target specificity profiling: plasma kallikrein; assay type: biochemical; details: replicates R1-R3
T1 construct: 0.25 nM plasma kallikrein (Innovative Research); purchased Innovative Research
T1 sequence (P03952 391-638 limits assumed): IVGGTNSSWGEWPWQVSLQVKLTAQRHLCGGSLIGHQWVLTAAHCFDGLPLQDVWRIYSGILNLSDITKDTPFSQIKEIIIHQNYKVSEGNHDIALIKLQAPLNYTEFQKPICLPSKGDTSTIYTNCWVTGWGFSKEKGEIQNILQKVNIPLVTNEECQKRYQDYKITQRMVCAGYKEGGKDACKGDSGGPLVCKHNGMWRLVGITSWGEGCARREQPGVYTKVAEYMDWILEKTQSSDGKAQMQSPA
T1 sequence (P03952 20-390 partner limits assumed): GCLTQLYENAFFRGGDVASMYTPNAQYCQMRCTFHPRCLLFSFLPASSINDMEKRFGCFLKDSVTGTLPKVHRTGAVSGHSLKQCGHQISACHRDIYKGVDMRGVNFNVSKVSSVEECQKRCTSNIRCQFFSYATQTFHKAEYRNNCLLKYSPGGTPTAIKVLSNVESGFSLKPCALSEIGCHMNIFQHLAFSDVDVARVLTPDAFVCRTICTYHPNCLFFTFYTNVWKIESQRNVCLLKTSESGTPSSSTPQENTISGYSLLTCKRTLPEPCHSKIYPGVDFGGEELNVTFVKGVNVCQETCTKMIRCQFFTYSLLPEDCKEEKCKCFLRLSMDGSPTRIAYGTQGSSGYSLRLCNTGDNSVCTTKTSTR
Procedure: (§1) The protease specificity was assessed by testing the inhibition of a series of trypsin-like serine proteases using fluorogenic or chromogenic substrates. Peptide dilutions ranging from 40 μM to 40 nM were prepared for all proteases except thrombin (1 μM to 1 nM). […]. The following fluorogenic substrates were used at a final concentration of 50 μM: Z-Gly-Gly-Arg-AMC (Bachem) for thrombin and trypsin; Z-Phe-Arg-AMC (Bachem) for plasma kallikrein; Boc-Phe-Ser-Arg-AMC (Bachem) for factor XIa; and Boc-Gln-Gly-Arg-AMC (Bachem) for factor XIIa. […]. Reactions were performed in a volume of 150 μl in 96-well plates. A volume of 50 μl of twofold dilutions of macrocycle in assay buffer was pipetted into the wells of the plates. A volume of 50 μl of protease in assay buffer was added to each well and incubated for 15 min. A volume of 50 μl of substrate in assay buffer containing 3% DMSO was added. Fluorescence intensity was measured for 30 min using an Infinite M200 Pro plate reader (Tecan; excitation at 368 nm, emission at 467 nm), with one measurement every minute. For APC protease, absorbance was measured at 405 nm using the same plate reader for a period of 30 min with one reading every minute. Reactions were performed at 25 °C. Data were analyzed by Excel (version 2016).

factor XIa = target: T2, factor XIa (Homo sapiens, UniProt P03951); assay: Target specificity profiling: factor XIa; assay type: biochemical; details: replicates R1-R3
T2 construct: 1 nM factor XIa (Innovative Research); purchased Innovative Research
T2 sequence (P03951 388-625 limits assumed): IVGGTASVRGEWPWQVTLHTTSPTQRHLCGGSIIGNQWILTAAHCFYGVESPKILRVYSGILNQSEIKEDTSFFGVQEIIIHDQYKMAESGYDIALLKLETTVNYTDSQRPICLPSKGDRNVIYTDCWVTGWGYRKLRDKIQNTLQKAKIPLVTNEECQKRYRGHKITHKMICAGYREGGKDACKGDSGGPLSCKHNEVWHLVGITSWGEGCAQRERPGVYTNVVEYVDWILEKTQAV
T2 sequence (P03951 19-387 partner limits assumed): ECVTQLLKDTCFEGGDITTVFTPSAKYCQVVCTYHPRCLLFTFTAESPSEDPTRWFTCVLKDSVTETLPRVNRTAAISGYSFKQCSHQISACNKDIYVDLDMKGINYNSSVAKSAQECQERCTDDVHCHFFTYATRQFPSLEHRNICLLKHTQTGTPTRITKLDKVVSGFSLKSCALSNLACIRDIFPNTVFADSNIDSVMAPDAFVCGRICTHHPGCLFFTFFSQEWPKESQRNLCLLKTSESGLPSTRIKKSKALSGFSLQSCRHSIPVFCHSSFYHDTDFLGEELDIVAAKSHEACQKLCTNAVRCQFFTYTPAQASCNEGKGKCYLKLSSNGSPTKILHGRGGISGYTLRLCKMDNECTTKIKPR
Procedure: as §1

factor XIIa = target: T3, factor XIIa (Homo sapiens, UniProt P00748); assay: Target specificity profiling: factor XIIa; assay type: biochemical; details: replicates R1-R3
T3 construct: 5.3 nM factor XIIa (Molecular Innovations); purchased Molecular Innovations
T3 sequence (P00748 373-615 limits assumed, other chains not shown): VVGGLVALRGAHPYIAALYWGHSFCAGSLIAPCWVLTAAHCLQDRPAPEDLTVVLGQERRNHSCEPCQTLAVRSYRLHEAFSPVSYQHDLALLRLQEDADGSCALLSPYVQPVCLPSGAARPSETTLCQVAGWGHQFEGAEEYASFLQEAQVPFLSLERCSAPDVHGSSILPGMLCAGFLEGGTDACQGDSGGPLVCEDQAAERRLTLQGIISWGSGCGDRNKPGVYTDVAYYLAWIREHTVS
Procedure: as §1

[1] = target: T4, activated protein C (APC) (Homo sapiens, UniProt P04070); assay: Target specificity profiling: activated protein C; assay type: biochemical; details: replicates R1-R3
T4 construct: purchased Molecular Innovations
T4 sequence (P04070 212-461 limits assumed): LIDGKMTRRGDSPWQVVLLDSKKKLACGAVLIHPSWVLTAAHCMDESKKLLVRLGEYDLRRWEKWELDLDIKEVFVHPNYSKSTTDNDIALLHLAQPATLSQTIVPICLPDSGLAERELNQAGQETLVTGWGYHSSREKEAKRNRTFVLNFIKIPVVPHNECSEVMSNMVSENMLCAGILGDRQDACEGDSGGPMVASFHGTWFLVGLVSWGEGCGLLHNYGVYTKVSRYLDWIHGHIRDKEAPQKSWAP
T4 sequence (P04070 43-197 partner limits assumed): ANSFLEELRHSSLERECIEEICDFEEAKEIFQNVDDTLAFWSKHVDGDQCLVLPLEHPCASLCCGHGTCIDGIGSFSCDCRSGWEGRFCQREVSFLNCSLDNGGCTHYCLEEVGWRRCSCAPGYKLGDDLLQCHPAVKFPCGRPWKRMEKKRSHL
Procedure: as §1

thrombin = target: T5, thrombin (Homo sapiens, UniProt P00734); assay: Target specificity profiling: thrombin; assay type: biochemical; details: replicates R1-R3
T5 construct: […]; purchased Molecular Innovations
Procedure: as §1

[2] = Measurement of in vivo gastrointestinal stability in rats; parameters: species or system rat; details: for Concentration in organ extract: rat n = 1, 30 min after p.o. 10 mg kg^−1
Procedure: Peptide 43 was dissolved in 10% Cremophor EL and 5% DMSO in water at a concentration of 1 mg ml^−1 and administrated by oral gavage to a rat at a dose of 10 mg kg^−1. The rat was killed 30 min after the administration using a CO2 chamber followed by cervical dislocation. Stomach, small intestine (duodenum/jejunum and ileum were collected separately) and large intestine were removed and immediately frozen in pre-cooled containers on dry ice. Organs and their respective content were collected separately to facilitate homogenization and sample processing. The organs were homogenized using a mortar and pestle on dry ice and liquid nitrogen to avoid thawing of the samples. Peptides were extracted by addition of 2 ml of extraction buffer containing 50 mM Tris-HCl (pH 8.0), 150 mM NaCl, 5 mM EDTA, 0.01% Triton-X, 1 mM PMSF and protease inhibitor cocktail (Sigma-Aldrich, P8340) per gram of organ or organ content weight and sonicating the resulting suspension for 5 min. Samples were centrifuged at 16,000g for 10 min, and 40 μl of the resulting supernatant was mixed with 120 μl of a cold acetonitrile:water (9:1) solution containing an internal standard (5 μg ml^−1). Samples were analyzed and quantified by LC–MS as described above.

O=C1C[C@H]2CCCN2C(=O)[C@H](Cc2ccccc2)NC(=O)[C@@H](NC(=O)c2ccc(Cl)cc2)CCC=CCCCCN1 (mixture of isomers) [peptide 46]
Residual protease activity, Plasma kallikrein (plasma kallikrein; inhibitor 1.00E+04 nM): 100.3 and 97.1 and 98.3 | Residual protease activity, Plasma kallikrein (plasma kallikrein; inhibitor 1.25E+03 nM): 101.3 and 99.9 and 96.3 | Residual protease activity, Plasma kallikrein (plasma kallikrein; inhibitor 1.56E+02 nM): 96.4 and 108.1 and 104.0 | Residual protease activity, Plasma kallikrein (plasma kallikrein; inhibitor 2.00E+04 nM): 101.2 and 98.7 and 98.9 | Residual protease activity, Plasma kallikrein (plasma kallikrein; inhibitor 2.50E+03 nM): 103.4 and 100.4 and 99.0 | Residual protease activity, Plasma kallikrein (plasma kallikrein; inhibitor 3.12E+02 nM): 102.1 and 105.6 and 105.7 | Residual protease activity, Plasma kallikrein (plasma kallikrein; inhibitor 3.91E+01 nM): 104.4 and 99.7 and 94.4 | Residual protease activity, Plasma kallikrein (plasma kallikrein; inhibitor 4.00E+04 nM): 101.1 and 97.0 and 98.9 | Residual protease activity, Plasma kallikrein (plasma kallikrein; inhibitor 5.00E+03 nM): 98.7 and 96.4 and 96.9 | Residual protease activity, Plasma kallikrein (plasma kallikrein; inhibitor 6.25E+02 nM): 106.1 and 103.7 and 102.1 | Residual protease activity, Plasma kallikrein (plasma kallikrein; inhibitor 7.81E+01 nM): 103.2 and 99.7 and 96.6 | Residual protease activity, Factor Xia (factor XIa; inhibitor 1.00E+04 nM): 95.7 and 95.4 and 95.1 | Residual protease activity, Factor Xia (factor XIa; inhibitor 1.25E+03 nM): 96.1 and 95.1 and 96.0 | Residual protease activity, Factor Xia (factor XIa; inhibitor 1.56E+02 nM): 107.0 and 105.2 and 107.6 | Residual protease activity, Factor Xia (factor XIa; inhibitor 2.00E+04 nM): 93.9 and 90.3 and 94.5 | Residual protease activity, Factor Xia (factor XIa; inhibitor 2.50E+03 nM): 100.7 and 100.4 and 101.9 | Residual protease activity, Factor Xia (factor XIa; inhibitor 3.12E+02 nM): 89.3 and 92.0 and 107.2 | Residual protease activity, Factor Xia (factor XIa; inhibitor 3.91E+01 nM): 99.1 and 100.7 and 101.5 | Residual protease activity, Factor Xia (factor XIa; inhibitor 4.00E+04 nM): 101.0 and 99.6 and 99.1 | Residual protease activity, Factor Xia (factor XIa; inhibitor 5.00E+03 nM): 104.3 and 104.7 and 110.9 | Residual protease activity, Factor Xia (factor XIa; inhibitor 6.25E+02 nM): 94.0 and 96.1 and 97.6 | Residual protease activity, Factor Xia (factor XIa; inhibitor 7.81E+01 nM): 100.7 and 100.8 and 101.1 | Residual protease activity, Factor XIIa (factor XIIa; inhibitor 1.00E+04 nM): 96.5 and 104.4 and 105.7 | Residual protease activity, Factor XIIa (factor XIIa; inhibitor 1.25E+03 nM): 99.3 and 104.0 and 102.2 | Residual protease activity, Factor XIIa (factor XIIa; inhibitor 1.56E+02 nM): 96.6 and 95.7 and 104.9 | Residual protease activity, Factor XIIa (factor XIIa; inhibitor 2.00E+04 nM): 93.0 and 104.6 and 101.1 | Residual protease activity, Factor XIIa (factor XIIa; inhibitor 2.50E+03 nM): 101.4 and 100.3 and 106.4 | Residual protease activity, Factor XIIa (factor XIIa; inhibitor 3.12E+02 nM): 98.7 and 101.4 and 105.7 | Residual protease activity, Factor XIIa (factor XIIa; inhibitor 3.91E+01 nM): 100.9 and 93.5 and 95.2 | Residual protease activity, Factor XIIa (factor XIIa; inhibitor 4.00E+04 nM): 94.7 and 100.5 and 101.1 | Residual protease activity, Factor XIIa (factor XIIa; inhibitor 5.00E+03 nM): 96.4 and 102.9 and 108.8 | Residual protease activity, Factor XIIa (factor XIIa; inhibitor 6.25E+02 nM): 97.3 and 115.8 and 103.1 | Residual protease activity, Factor XIIa (factor XIIa; inhibitor 7.81E+01 nM): 96.1 and 102.4 and 80.0 | Residual protease activity, APC ([1]; inhibitor 1.00E+04 nM): 101.7 and 94.1 and 93.6 | Residual protease activity, APC ([1]; inhibitor 1.25E+03 nM): 93.2 and 97.3 and 95.1 | Residual protease activity, APC ([1]; inhibitor 1.56E+02 nM): 95.1 and 104.3 and 101.7 | Residual protease activity, APC ([1]; inhibitor 2.00E+04 nM): 94.9 and 98.4 and 96.8 | Residual protease activity, APC ([1]; inhibitor 2.50E+03 nM): 94.9 and 96.5 and 96.6 | Residual protease activity, APC ([1]; inhibitor 3.12E+02 nM): 95.1 and 90.6 and 94.4 | Residual protease activity, APC ([1]; inhibitor 3.91E+01 nM): 96.3 and 96.7 and 99.0 | Residual protease activity, APC ([1]; inhibitor 4.00E+04 nM): 95.7 and 97.0 and 95.5 | Residual protease activity, APC ([1]; inhibitor 5.00E+03 nM): 98.3 and 99.0 and 99.1 | Residual protease activity, APC ([1]; inhibitor 6.25E+02 nM): 100.4 and 91.2 and 89.1 | Residual protease activity, APC ([1]; inhibitor 7.81E+01 nM): 108.2 and 108.3 and 107.3 | Residual protease activity, Thrombin (human) (thrombin; inhibitor 1.00E+03 nM): 3.9 and 4.0 and 3.8 | Residual protease activity, Thrombin (human) (thrombin; inhibitor 1.25E+02 nM): 27.0 and 25.5 (2×) | Residual protease activity, Thrombin (human) (thrombin; inhibitor 1.56E+01 nM): 75.5 and 73.3 and 73.1 | Residual protease activity, Thrombin (human) (thrombin; inhibitor 1.95E+00 nM): 95.2 and 97.7 and 95.3 | Residual protease activity, Thrombin (human) (thrombin; inhibitor 2.50E+02 nM): 15.1 and 14.2 and 14.6 | Residual protease activity, Thrombin (human) (thrombin; inhibitor 3.12E+01 nM): 59.3 and 58.1 and 56.4 | Residual protease activity, Thrombin (human) (thrombin; inhibitor 3.91E+00 nM): 91.5 and 93.3 and 91.3 | Residual protease activity, Thrombin (human) (thrombin; inhibitor 5.00E+02 nM): 7.6 and 7.4 (2×) | Residual protease activity, Thrombin (human) (thrombin; inhibitor 6.25E+01 nM): 44.1 and 42.5 and 42.8 | Residual protease activity, Thrombin (human) (thrombin; inhibitor 7.81E+00 nM): 89.2 and 86.5 and 77.1 | Residual protease activity, Thrombin (human) (thrombin; inhibitor 9.77E-01 nM): 99.8 and 102.7 and 98.9

O=C1C[C@H]2CCCN2C(=O)[C@H](Cc2ccccc2)NC(=O)[C@@H](NC(=O)c2ccc(Cl)s2)CCC=CCCCCN1 [peptide 43]
Concentration in organ extract ([2]; Large intestine - content): 656 nM | Concentration in organ extract ([2]; Large intestine): 500 nM | Concentration in organ extract ([2]; Lower small instestine - content): 2900 nM | Concentration in organ extract ([2]; Lower small instestine): 600 nM | Concentration in organ extract ([2]; Stomach - content): 87600 nM | Concentration in organ extract ([2]; Stomach): 31600 nM | Concentration in organ extract ([2]; Upper small instestine - content): 13100 nM | Concentration in organ extract ([2]; Upper small instestine): 2600 nM | in vivo gastrointestinal stability ([2]; rats, 10 mg kg^−1 p.o., 30 min, stomach, small and large intestine): large fraction of the peptide fully intact
